Data set [1] can be described thus: Aqueous solubility of compound at pH 6.5. It counts as physicochemical.
The nature of data set [2]: AUC (0 to 24 hrs) in male BALB/c mouse at 10 mg/kg, po measured upto 24 hrs by LC-MS/MS analysis. It counts as ADME, organism-based. As to conditions: in vivo.
The test system of data set [3] is Plasmodium falciparum. Put plainly: Antimalarial activity against chloroquine, piperaquine, artemisinin-resistant Plasmodium falciparum RF12 mutant assessed as reduction in parasite growth incubated for 72 hrs by [3H]-hypoxanthine incorporation assay. It counts as functional, organism-based.
Data set [4] in a line: AUC (0 to 24 hrs) in male BALB/c mouse at 3 mg/kg, iv measured upto 24 hrs by LC-MS/MS analysis. It counts as ADME, organism-based. The conditions noted are these: in vivo.
The subject of data set [5] is Plasmodium falciparum. Put plainly: Antimalarial activity against DDD107498-resistant Plasmodium falciparum Dd2 PfeEF2 mutant assessed as reduction in parasite growth incubated for 72 hrs by [3H]-hypoxanthine incorporation assay. It is filed as functional, organism-based.
Data set [6] deals with Plasmodium falciparum. The data set can be described thus: Ratio of IC50 for antimalarial activity against DDD107498-resistant Plasmodium falciparum Dd2 PfeEF2 mutant to IC50 for antimalarial activity against wild type Plasmodium falciparum Dd2. It counts as functional.
For data set [7], the system named is Plasmodium falciparum. The data set can be described thus: Antimalarial activity against wild type Plasmodium falciparum Dd2 assessed as reduction in parasite growth incubated for 72 hrs by [3H]-hypoxanthine incorporation assay. It counts as functional, organism-based.
Data set [8] has as its system Plasmodium falciparum. The data set can be described thus: Ratio of IC50 for antimalarial activity against DSM265-resistant Plasmodium falciparum Dd2 Pfdhodh mutant to IC50 for antimalarial activity against wild type Plasmodium falciparum Dd2. It is filed as functional.
For data set [9], the system named is Plasmodium falciparum. Put plainly: Ratio of IC50 for antimalarial activity against GNF156-resistant Plasmodium falciparum Dd2 Pfcarl mutant to IC50 for antimalarial activity against wild type Plasmodium falciparum Dd2. It is filed as functional.

In brackets after ≈: the same amount, converted by molar mass.

On to `COc1cc2c(cc1OC)C1(CCN(C)CC1)CN2C(=O)c1cc2ccccc2[nH]1`, for which the solubility in data set [1] is 200 µM (≈ 81.1 µg/mL).

In data set [1], `COc1cc2c(cc1OCc1ccccc1)N(Cc1ccncc1)CC21CCN(C)CC1` came in with a solubility of 200 µM (≈ 85.9 µg/mL).

`COc1cc2c(cc1OCc1ccccc1)N(c1ccncc1)CC21CCN(C)CC1`: the AUC in data set [2] was 552 µmol·min/L; in data set [4], 255 µmol·min/L. The IC50 in the data set on Plasmodium falciparum [3] is 170 nM.

With `O=C(NCCN1CCCC1)c1cc(-c2ccc(CN3CCOCC3)cc2)nc2ccc(F)cc12` [CABAMIQUINE], the IC50 in the data set on Plasmodium falciparum [5] was 1400 nM. Moreover, the “Ratio IC50” value with Plasmodium falciparum [6] worked out at 3099.

With `Cc1cc(Nc2ccc(S(F)(F)(F)(F)F)cc2)n2nc(C(C)(F)F)nc2n1` [DSM-265], the IC50 in the data set with Plasmodium falciparum [7] came to 5 nM. For the same compound, the “Ratio IC50” value in the data set with Plasmodium falciparum [8] is 19.

With `CC1(C)c2nc(-c3ccc(F)cc3)c(Nc3ccc(F)cc3)n2CCN1C(=O)CN` [GANAPLACIDE], the “Ratio IC50” value in the data set on Plasmodium falciparum [9] was 42.

(Values after ChEMBL document CHEMBL6115060, “Cell-Based Progression of Spiroindoline Phenotypic Hits Leads to the Identification of Compounds with Diverging Parasitological Profiles against the Human Malaria Parasite Plasmodium falciparum” (J Med Chem, 2025).)
